The values that follow come from patent US6852726B2, “Substituted indoles as alpha-1 agonists” (Syntex LLC, priority 2002, dated 2005).

Series [1] concerns the target T1, alpha-1A adrenoceptors expressed in CHO-K1 cells (clone 13) (Homo sapiens, UniProt P35348).
T1 construct: expressed in transfected cells; host or cells: CHO-K1 (clone 13)
T1 sequence (P35348 1-466): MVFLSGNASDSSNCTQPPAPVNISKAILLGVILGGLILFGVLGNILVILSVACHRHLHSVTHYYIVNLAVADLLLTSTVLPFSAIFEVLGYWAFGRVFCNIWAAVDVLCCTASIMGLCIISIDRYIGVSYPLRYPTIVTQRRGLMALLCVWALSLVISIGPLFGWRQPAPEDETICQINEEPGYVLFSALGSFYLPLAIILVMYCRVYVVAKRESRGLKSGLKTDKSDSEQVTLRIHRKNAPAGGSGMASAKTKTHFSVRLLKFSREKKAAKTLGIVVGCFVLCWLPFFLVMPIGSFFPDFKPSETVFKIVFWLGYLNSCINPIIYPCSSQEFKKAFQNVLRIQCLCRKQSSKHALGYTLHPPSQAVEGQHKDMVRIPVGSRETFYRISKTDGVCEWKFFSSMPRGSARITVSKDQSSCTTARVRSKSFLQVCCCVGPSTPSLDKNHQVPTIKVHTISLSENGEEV
Nature of the series: Functional assay for alpha-1A/L agonist activity (FLIPR, Fluo-3 intracellular calcium). As to conditions: for IA (intrinsic activity): maximum response relative to full agonist norepinephrine bitartrate, CHO-K1 alpha-1A cells. The class given is cell-based. From the text: The inhibitory activity of compounds of this invention in vitro was examined using fluorescent dye determination of intracellular calcium concentrations as described in Example 6.
Functional Assay for Alpha-1A/L Agonist Activity
The inhibitory activity of compounds of this invention in vitro was examined using fluorescent dye determination of intracellular calcium concentrations.
Chinese hamster ovary cells CHO-K1 expressing the alpha-1A adrenoceptors (clone 13) are washed 4 times (approx. 300 μL/well) with fluorometric imaging plate reader (FLIPR) buffer (Hank's buffered saline solution (HBSS), 2 mM CaCl2, 10 mM HEPES, 2,5 mM probenecid, 100 μM ascorbic acid), with a final volume of 150 μL/well. Cells are loaded with 50 μL/well of 8 μM Fluo-3 AM (Molecular Probes, Eugene, Oreg.), for a final concentration of 2 μM Fluo-3 AM. Cells are then incubated for 60 min at 37° C. Following dye loading, cells are washed 4 times (approx. 300 μL/well) with FLIPR buffer with a final volume of 150 μL/well.
The Test compound, control compound and reference compound are run in quadruplicate, 8-point curves on each plate with a final assay concentration range of 10^−4M to 10^−11M for each compound. All compounds are dissolved in DMSO at 10 mM, and serially diluted in FLIPR buffer.
The assay plate is placed in the FLIPR incubation chamber and a baseline fluorescence measurement (excitation @ 488 nm and emission @ 510-570 nm) is obtained (15 sec interval). An experimental run is then commenced. The reaction is started with the addition of 50 μL/well (at 4× final concentration) of test, control, or reference compound solution from the agonist plate to the assay plate to all 96 wells simultaneously. Fluorescence is measured for 120 sec at 1 sec intervals. Then, a second addition of 5 μM ionomycin (50 μL/well from 5× concentration ionomycin plate) is added to the assay plate. Fluorescence is measured for 30 sec at 1 sec intervals. All experiments are conducted at room temperature.
For each assay plate, responses (increase in peak fluorescence) in each well following addition of agonist (test, control and reference) are determined. These responses may be expressed as raw CFU (Corrected Fluorescence Units), as a % maximum ionomycin response or other unit as determined by the investigator.
For test compound, control compound (Noerepinephrine (NE) bitartrate), and reference compound, the concentration producing a 50% increase in control response (EC50) is determined using iterative curve-fitting methods. Excel spreadsheet or Kaleidagraph software are used to fit data to the general logistic function (E=B+Emax·A^nH/A^nH+EC50^nH), where B is the corrected baseline fluorescence units (defined as zero), A is the concentration of agonist added and nH is the Hill slope (constrained to unity). EC50 values and maxima (Emax) for each curve can be estimated objectively using this software.
In addition the intrinsic activity (α) is determined. Intrinsic activity is defined as the maximum response to test agonist divided by the maximum response to a full agonist acting through the same receptor. For these experiments, the full agonist is defined as Norepinephrine (NE) bitartrate (control).
Background: Calcium assays in cells follow changes in intracellular calcium, usually with a dye or a luminescent sensor.

The mark [2] stands for this setting: CHO-K1 cells expressing alpha-1A adrenoceptors, FLIPR calcium fluorescence, room temperature.

For orientation: EC50 means the concentration at which the effect is half-maximal. The pEC50 is the negative decadic logarithm of the EC50, by convention in mol/L. In general, melting point refers to the temperature, or range, at which the solid turns liquid.

Consider `Cc1c(S(C)(=O)=O)c2ccccc2n1CC1=NCCN1` [1-(4,5-Dihydro-1H-imidazol-2-ylmethyl)-3-methanesulfonyl-2-methyl-1H-indole], for which the EC50 in series [1] (setting [2]) was 0.832 nM. The “IA (intrinsic activity)” value in series [1] was found to be 1.00.

With `CN(C)S(=O)(=O)c1cn(CC2=NCCN2)c2cc(Cl)ccc12` [6-Chloro-1-(4,5-dihydro-1H-imidazol-2-ylmethyl)-1H-indole-3-sulfonic acid dimethylamide], the EC50 in series [1] (setting [2]) is 9.12 nM. Further, the “IA (intrinsic activity)” value in series [1] was 1.00.

As for `Cc1c(S(C)(=O)=O)c2ccc(S(C)(=O)=O)cc2n1CC1=NCCN1` [1-(4,5-Dihydro-1H-imidazol-2-ylmethyl)-3,6-bis-methanesulfonyl-2-methyl-1H-indole], the EC50 in series [1] (setting [2]) was 60300 nM. Further, in series [1], the “IA (intrinsic activity)” value came out at 0.18.

Consider `COc1ccc2c(S(C)(=O)=O)c(C)n(CC3=NCCN3)c2c1` [1-(4,5-Dihydro-1H-imidazol-2-ylmethyl)-3-methanesulfonyl-6-methoxy-2-methyl-1H-indole], for which the EC50 in series [1] (setting [2]) is 10 nM. Moreover, in series [1], the “IA (intrinsic activity)” value is recorded as 1.05.

On to “6-Bromo-1-(4,5-dihydro-1H-imidazol-2-ylmethyl)-1H-indole-3-carboxylic acid dimethylamide [Example 17]”, for which the pEC50 in series [1] (setting [2]) came to 8.34. The “IA (intrinsic activity)” value in series [1] is 1.02.

In the case of `CS(=O)(=O)c1cn(CC2=NCCN2)c2ccccc12` [1-(4,5-Dihydro-1H-imidazol-2-ylmethyl)-3-methanesulfonyl-1H-indole], the EC50 in series [1] (setting [2]) was 2.29 nM. Also, in series [1], the “IA (intrinsic activity)” value amounted to 1.07.

On to `Cc1c(S(C)(=O)=O)c2c(S(C)(=O)=O)cccc2n1CC1=NCCN1` [1-(4,5-Dihydro-1H-imidazol-2-ylmethyl)-3,4-bis-methanesulfonyl-2-methyl-1H-indole], for which the EC50 in series [1] (setting [2]) was 1050 nM. The “IA (intrinsic activity)” value in series [1] stood at 1.04.

Take `Cc1ccc2c(c1)c(S(C)(=O)=O)c(C)n2CC1=NCCN1.Cl` [1-(4,5-Dihydro-1Hmidazol-2-ylmethyl)-3-methanesulfonyl-2,5-dimethyl-1H-indole]: the EC50 in series [1] (setting [2]) is 23.4 nM. Besides, the “IA (intrinsic activity)” value in series [1] was 0.93.

Regarding `Cc1c(S(C)(=O)=O)c2cccc(Cl)c2n1CC1=NCCN1` [Example 4, 7-Chloro-1-(4,5-dihydro-1H-imidazol-2-ylmethyl)-3-methanesulfonyl-2-methyl-1H-indole], the melting point was in the range of 221 to 223 °C.

In the case of `Cc1c(S(C)(=O)=O)c2cccc(C(F)(F)F)c2n1CC1=NCCN1` [1-(4,5-Dihydro-1H-imidazol-2-ylmethyl)-3-methanesulfonyl-2-methyl-7-trifluoromethyl-1H-indole], the EC50 in series [1] (setting [2]) is 141 nM. The “IA (intrinsic activity)” value in series [1] is on record as 0.96.
